Experimental data: patent US20250179047A1, “5-[7-(3,4-DIHYDRO-1H-ISOQUINOLINE-2-CARBONYL)-1,2,3,4 TETRAHYDROISOQUINOLIN-6-YL]-1H-PYRROLE-3-CARBOXAMIDE DERIVATIVES, PHARMACEUTICAL COMPOSITIONS CONTAINING THEM AND THEIR USES AS PRO-APOPTOTIC AGENTS” (LES LABORATOIRES SERVIER, priority 2022, published 2025)

Tests used:
[1] = tested on: BCL2 G101V; assay: TR-FRET competitive binding assay, BCL2 G101V; parameters: species or system human; details: ratio Ki BCL2 G101V / Ki BCL2 WT
In short: (§1)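 Ki derived from IC50 (11-point dilution, 520/495 nm emission ratio) for displacing a fluorescein-labelled PUMA peptide (2 or 20 nM). Target was 0.5 nM E. coli-expressed Halo-tagged BCL2 (1-207) or BCLXL (2-196), terbium-labelled on Halo. Incubation 2 h at 23°C in pH 7.5 Hepes with 150 mM NaCl and 5% DMSO.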

[2] = target: BCL2 G101V (Homo sapiens, UniProt P10415, G101V); assay: TR-FRET competitive binding assay, BCL2 G101V; details: BCL2 G101V; Ki determined from IC50; read-out: TR_FRET EKI_Bcl2 G101V
In short: as §1

[3] = target: BCL2 WT (Homo sapiens (Human), UniProt P10415); assay: TR-FRET competitive binding assay, BCL2 WT; details: Ki determined from IC50, read-out: TR_FRET EKI_Bcl2 WT
In short: as §1

[4] = tested on: KMS-12-PE Bcl-2 G101V; assay: In vitro cytotoxicity CellTiter-Glo 48 h, KMS-12-PE Bcl-2 G101V; assay type: cell-based; details: for Ratio (G101V/WT): C50 KMS-12-PE Bcl-2 G101V over C50 KMS-12-PE Bcl-2 WT; for IC50: 48 h, CellTiter-Glo, C50 = concentration needed to reach 50% of the cellular viability
In short: (§2)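 KMS-12-PE myeloma cells were lentivirally transduced with wild-type or G101V-mutant Bcl-2 and sorted by TagRFP. They were exposed to compounds as 11-point dose responses for 48 h at 37 °C, 5% CO2. Viability was read by CellTiter-Glo ATP luminescence, and C50 was the concentration giving 50% viability.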

[5] = target: BCL2 F104I (Homo sapiens, UniProt P10415, F104I); assay: TR-FRET competitive binding assay, BCL2 F104I; details: Ki determined from IC50, read-out: TR_FRET EKI_Bcl2 F104I
Description: (§3) The relative binding potency of each compound was determined in a competitive binding assay using time resolved-fluorescence resonance energy transfer (TR-FRET). The method utilised a fluorescein labelled peptide derived from PUMA (5Flu-Ahx-[…]-NH2 wherein Ahx means 6-hexanoic acid monomer and the amino acid sequence is referred to as SEQ ID:01) which binds to a terbium labelled BCL2 or BCLXL protein. The degree of binding or corresponding compound inhibition can be quantified by the TR-FRET signal between the terbium donor and fluorescein acceptor.
(§4) The human BCL2_wild-type (also named BCL2_wt), BCL2_G101V mutant and BCLXL_wild-type were E. coli expressed as a N-terminal Halo-fusion proteins and singly labelled with Terbium on the Halo protein to afford the following amino acid sequences:
(§5) wherein the BCL2(1-207) sequence corresponds to UniProtKB® primary accession number P10415 and the BCLXL(2-196) sequence corresponds to UniProtKB® primary accession number Q07817-1.
(§6) The assay was performed in a 40 μL volume in white 384-standard well plates (Corning #3574). An 11-point serial dilution of each compound was prepared in DMSO and transferred directly to plate followed by addition of fluorescein labelled peptide and lastly protein. Final assay conditions were 0.5 nM BCL2_wt, BCL2_G101V, BCL2_D103Y, BCL2_F104I, BCL2_D111A or BCLXL_wt, 2 or 20 nM fluorescein labelled peptide, 50 mM Hepes pH 7.5, 150 mM NaCl, 0.5 mM TCEP (Tris(2-carboxyethyl)phosphine), 0.05% Tween 20, 5% DMSO. The mixture was incubated for 2 hours at 23° C.
(§7) TR-FRET measurements were performed on a Biotek Synergy Neo plate reader. TR-FRET was measured by excitation of the Terbium-donor at 340 nm and subsequent (delay time 100 μs) measurement of terbium and fluorescein emission at 495 nm and 520 nm, respectively, over a collection time of 300 μs. The TR-FRET signal was calculated as the emission-ratio at 520 nm over 495 nm.
(§8) The TR-FRET ratio readout for test compounds was normalized against 0% inhibition controls wells and 100% inhibition control wells. Test compound potency (IC50) was estimated by nonlinear regression using the sigmoidal dose-response (variable slope) using Xlfit 4 (IDBS, Guildford, Surrey, UK, model 205). Were the IC50 could not be determined the % inhibition at the highest tested concentration is given.
(§9) y=(A+((B−A)/(1+((C/x)^D))))
(§10) where y is the normalized TR-TRET ratio measurement for a given concentration of test compound, x is the concentration of test compound, A is the estimated efficacy (% inhibition) at infinite compound dilution, and B is the maximal efficacy (% inhibition). C is the IC50 value and D is the Hill slope coefficient.
(§11) The K1 values were determined from the IC50 values according to Cer et al, Nucleic Acids Res, 2009, July 1; 37 (WebServer issue): W441-W445.

[6] = tested on: KMS-12-PE Bcl-2 WT; assay: In vitro cytotoxicity CellTiter-Glo 48 h, KMS-12-PE Bcl-2 WT; assay type: cell-based; details: C50 = concentration needed to reach 50% of the cellular viability
In short: as §2

[7] = target: BCL2 D103Y (Homo sapiens, UniProt P10415, D103Y); assay: TR-FRET competitive binding assay, BCL2 D103Y; details: Ki determined from IC50, read-out: TR_FRET EKI_Bcl2 D103Y
In short: as §1

[8] = target: BCL2 D111A (Homo sapiens, UniProt P10415, D111A); assay: TR-FRET competitive binding assay, BCL2 D111A; details: Ki determined from IC50, read-out: TR_FRET EKI_Bcl2 D111A
Description: as §3, §4, §5, §6, §7, §8, §9, §10, §11

[9] = target: BCLXL WT (Homo sapiens (Human), UniProt Q07817); assay: TR-FRET competitive binding assay, BCLXL WT; details: for Ki: BCLXL WT, Ki determined from IC50, read-out: TR_FRET EKI BclxL; for TR_FRET EKI BCLxL/WT selectivty ratio: ratio Ki BCLxL / Ki BCL2 WT
In short: as §1

BCLXL WT, sequence (Q07817 other isoform, or with tags, fused parts or gaps): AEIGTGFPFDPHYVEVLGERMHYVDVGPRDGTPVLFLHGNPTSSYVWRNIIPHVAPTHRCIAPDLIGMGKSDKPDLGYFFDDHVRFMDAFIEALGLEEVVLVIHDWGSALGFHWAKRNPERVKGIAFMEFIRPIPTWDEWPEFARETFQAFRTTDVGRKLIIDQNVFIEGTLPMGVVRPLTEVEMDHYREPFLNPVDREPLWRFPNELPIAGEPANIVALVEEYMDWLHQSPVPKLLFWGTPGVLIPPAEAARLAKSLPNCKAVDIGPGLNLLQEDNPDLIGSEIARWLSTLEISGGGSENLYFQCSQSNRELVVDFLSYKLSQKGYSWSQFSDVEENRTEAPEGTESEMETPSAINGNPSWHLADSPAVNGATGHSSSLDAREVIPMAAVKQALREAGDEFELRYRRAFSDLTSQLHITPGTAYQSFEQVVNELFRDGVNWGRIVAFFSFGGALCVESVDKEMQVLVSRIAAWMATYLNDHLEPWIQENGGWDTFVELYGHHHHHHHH

SMILES | TR_FRET EKI G101V/WT selectivty ratio [1] | Ki [2] | Ki [3] | Ratio (G101V/WT) [4] | IC50 ([4]; Homo sapiens, KMS-12-PE) | Ki [5] | IC50 ([6]; Homo sapiens, KMS-12-PE) | Ki [7] | Ki [8] | Ki [9] | TR_FRET EKI BCLxL/WT selectivty ratio [9] | IC50 [4] | IC50 [6]
Cc1c(N(C(=O)c2cc(-c3cc4c(cc3C(=O)N3Cc5ccccc5C[C@H]3C)CN(C(=O)c3cnc(-c5ccccc5)s3)CC4)n(C)c2C)c2ccc(O)cc2)cc(C#N)n1C [Example 17, N-(5-cyano-1,2-dimethyl-1H-pyrrol-3-yl)-N-(4-hydroxyphenyl)-1,2-dimethyl-5-{7-[(3R)-3-methyl-1,2,3,4-tetrahydroisoquinoline-2-carbonyl]-2-(2-phenyl-1,3-thiazole-5-carbonyl)-1,2,3,4-tetrahydroisoquinolin-6-yl}-1H-pyrrole-3-carboxamide] | 6.2 | 4 nM | 0.65 nM | 4.51 | 0.0144 µM | 33.9 nM | 0.0032 µM | 4.1 nM | 3.34 nM | 9.6 nM | 14.8 |  | 
Cc1c(N(C(=O)c2cc(-c3cc4c(cc3C(=O)N3Cc5ccccc5C[C@H]3C)CN(C(=O)C(F)(F)c3ccccc3)CC4)n(C)c2C)c2ccc(O)cc2)cc(C#N)n1C [Example 18, N-(5-cyano-1,2-dimethylpyrrol-3-yl)-5-[2-(2,2-difluoro-2-phenylacetyl)-7-{[(3R)-3-methyl-3,4-dihydro-1H-isoquinolin-2-yl]carbonyl}-3,4-dihydro-1H-isoquinolin-6-yl]-N-(4-hydroxyphenyl)-1,2-dimethylpyrrole-3-carboxamide] | 14.0 | 4.2 nM | 0.3 nM | 8.67 | 0.0477 µM | 53.5 nM | 0.0055 µM | 1.23 nM | 2.65 nM | 30.2 nM | 100.7 |  | 
Cc1c(N(C(=O)c2cc(-c3cc4c(cc3C(=O)N3Cc5ccccc5C[C@H]3C)CN(C(=O)C3CCN(c5ccccc5)C3=O)CC4)n(C)c2C)c2ccc(O)cc2)cc(C#N)n1C (stereo partly shown) [Example 29] | 10.3 | 6.9 nM | 0.67 nM | 3.62 |  | 78 nM |  | 0.98 nM | 1.29 nM | 13.1 nM | 19.6 | 0.0594 µM | 0.0164 µM
Cc1c(N(C(=O)c2cc(-c3cc4c(cc3C(=O)N3Cc5ccccc5C[C@H]3C)CN(C(=O)Cc3ccc(OCCN5CCC(O)CC5)cc3)CC4)n(C)c2C)c2ccc(O)cc2)cc(C#N)n1C [Example 30, N-(5-cyano-1,2-dimethyl-1H-pyrrol-3-yl)-N-(4-hydroxyphenyl)-5-[2-(2-{4-[2-(4-hydroxypiperidin-1-yl)ethoxy]phenyl}acetyl)-7-[(3R)-3-methyl-1,2,3,4-tetrahydroisoquinoline-2-carbonyl]-1,2,3,4-tetrahydroisoquinolin-6-yl]-1,2-dimethyl-1H-pyrrole-3-carboxamide] | 1.9 | 0.2 nM | 0.1 nM | 4.76 | 0.0909 µM | 0.26 nM | 0.0191 µM | 0.19 nM | 0.12 nM | 1.1 nM | 11.6 |  | 
Cc1c(N(C(=O)c2cc(-c3cc4c(cc3C(=O)N3Cc5ccccc5C[C@H]3C)CN(C(=O)Cc3ccc(OCCN5CCN(C6CC6)CC5)cc3)CC4)n(C)c2C)c2ccc(O)cc2)cc(C#N)n1C [Example 31, N-(5-cyano-1,2-dimethyl-1H-pyrrol-3-yl)-5-[2-(2-{4-[2-(4-cyclopropylpiperazin-1-yl)ethoxy]phenyl}acetyl)-7-[(3R)-3-methyl-1,2,3,4-tetrahydroisoquinoline-2-carbonyl]-1,2,3,4-tetrahydroisoquinolin-6-yl]-N-(4-hydroxyphenyl)-1,2-dimethyl-1H-pyrrole-3-carboxamide] | 2.6 | 0.3 nM | 0.11 nM | 4.05 | 0.0312 µM | 0.52 nM | 0.0077 µM | 0.4 nM | 0.26 nM | 1.3 nM | 11.8 |  | 
